“Also recorded” adds a separate entry of the source. Read-outs that look alike come from different tables or passages of the source.
What was measured:
[1] = tested on: differentiated human airway epithelia; type: cell-based
[2] = tested on: differentiated human airway epithelia; test: Confocal (latex beads) and transmission electron microscopy of epithelial junctions after EGTA; type: cell-based; conditions: 1 hr
Method: Ten micromoles of CMFDA (5-chloromethylfluorescein diacetate; Molecular Probes, Eugene, Oreg.) were added to the basal medium overnight to label cells (Knecht and Shelden, 1995; Stewart and Deacon, 1995). 100 nm latex beads (1×10^9 particles, Sigma, St. Louis, Mo.) were mixed with 12 mM hypotonic EGTA solution at a 1:1 ratio. The suspension was applied to the apical surface of KGF-stimulated epithelia for 1 hr. The epithelia were then washed with PBS 4-5 times for 20 min and then fixed in 4% paraformaldehyde/PBS for 20 min. The cell filter membranes were removed, mounted on slides, and examined under a confocal microscope (MRC 1024, Bio-Rad).
Transmission electron microscopy was used to study cell morphology following treatment with a 6 mM EGTA in hypotonic buffer for 1 hr. Differentiated human airway epithelia were fixed in 2.5% glutaraldehyde (0.1 M sodium cacodylate buffer, pH 7.4) overnight at 4° C., and then post-fixed with 1% osmium tetroxide for 1 hr. Following serial alcohol dehydration, samples were embedded in Eponate 12 (Ted Pella, Inc., Redding, Calif.). Sectioning and post-staining were performed using routine methods (see “Electron Microscopy: Principles and Techniques for Biologists,” Jones and Bartlett Publishers, Sudbury, Mass., 1998). Samples were examined under a Hitachi H-7000 transmission electron microscope. […]

[3] = tested on: primary cultures of human airway epithelia; test: EGTA dose range for gene transfer on primary cultures of human airway epithelia; type: cell-based; conditions: MuLV or FIV based retroviruses, MOI 10, range tested 0-96 mM, 4 hrs apical
Method: The optimal dose range for EGTA was determined on primary cultures of human airway epithelia Gene transfer efficiency with apical application of MuLV or FIV based retrovirus (MOI 10) or adenovirus (MOI 50) was determined over a range of EGTA concentrations from 0-96 mM. The vectors were diluted 1:1 (vol/vol) with a buffer consisting of water, 10 mM HEPES and the appropriate amount of EGTA. The vector formulation was left on the apical surface of the cells for 4 hrs, then removed. Gene transfer efficiency was evaluated 3 days later by X-gal staining for beta galactosidase expression.

[4] = tested on: rabbit tracheal epithelium; test: Tracheal transepithelial voltage (Vt) in anesthetized rabbits; type: in vivo
Method: Rabbit studies. The transepithelial electrical potential difference across the rabbit tracheal epithelium (Vt) was measured using a modification of previously described methods (Zabner et al., 1996). The reference electrode was a subcutaneous needle connected with sterile normal saline solution to a silver/silver chloride pellet. Adult New Zealand white rabbits (n=4/group) were anesthetized with 32 mg/kg ketamine, 5.1 mg/kg xylazine and 0.8 mg/kg acepromazine intramuscularly and placed with the head in the dependent position. An exploring electrode (pediatric size 8 Teflon-coated latex double lumen Foley catheter, modified Ruseh, Inc., Duluth, Ga.) was inserted into the tracheal lumen via a tracheotomy incision. One lumen of the catheter was filled with sterile normal saline solution and was connected to a silver/silver chloride pellet. Voltage was measured with a voltmeter connected to a strip chart recorder. The catheter was then left in that position for the entire recording period. The solutions were administered through the second lumen in the following order: 1) Normal saline for 5 min; 2) Sterile water with 10 mM EGTA for 10 min; 3) Normal saline with 10 mM EGTA for 5 min; and 4) Normal saline with 10 mM EGTA plus 100 μM amiloride for 5 min. Measurements of Vt were read by two investigators who were blinded to the treatment received. There wre no discrepancies in readings of greater than 2 mV between the investigators. Disruption of epithelial junctions was assessed by detecting a fall in […] Vt after perfusion with the chelator, and by the loss of amiloride-sensitive Vt after perfusion with the chelator solution.

lung epithelial layer = test: Fluorescent bead penetration of lung epithelium after EGTA instillation; type: in vivo, rat; conditions: 3 or 12 mM EGTA, 100 μl into left lobe, one hour
Method: Preliminary studies were performed in rats to test the feasibility of using hypotonic solutions with EGTA to increase transepithelial permeability in vivo. 3 wk old rats were tracheotomized and a small caliber PE catheter inserted into the left lobe of the lung. 100 μl of 3 or 12 mM EGTA in water or PBS was mixed with […] fluorescent beads (a marker for viral particles) and instilled into the lungs. One hour later the animals were sacrificed and lung, tissue sections examined under fluorescence microscopy to determine if the fluorescent beads penetrated the epithelial layer. In the PBS control animal, fluorescent particles were only noted in the airway lunen. […] It also was asked if animals treated with EGTA/H2O developed changes in lung morphology. Animals received PBS or 12, 60, or 120 mM EGTA/water into the left lobe of the lung and 1 wk later were sacrificed and H & E stained lung tissues examined.

[5] = tested on: differentiated human airway epithelial cells; type: cell-based
[6] = vector to apical surface with EGTA in vector buffer, 200 cells counted

Compound: O=C(O)CN(CCOCCOCCN(CC(=O)O)CC(=O)O)CC(=O)O [EGTA]
- effect on proliferation ([1]; application of H2O or EGTA to epithelia, control studies): had no effect on proliferation
- β-gal positive cells ([1]; pretreated with combination of water and EGTA 20 min, then vector, mean±SE, n=9): 20.3±2.5%
- β-gal positive cells ([1]; sequential water then EGTA in water 10 min each, then vector): 8±1.3%
- share of β-gal positive cells that are basal cells [1, 6]: 36%
- share of β-gal positive cells that are ciliated cells [1, 6]: 28%
- share of β-gal positive cells that are intermediate cells [1, 6]: 36%
- β-gal positive cells ([1]; water and EGTA 20 min, then vector containing EGTA, 3 days after delivery, mean±SE, n=9): 34.3±5.4%
- width of intercellular gap (TEM) ([2]; 6 mM EGTA in hypotonic buffer): ~500 nm
- intercellular spaces and deposition of 100 nm beads ([2]; hypotonic 6 mM EGTA, apical): caused a widening of the intercellular spaces and facilitated deposition of beads in the paracellular space
- EGTA concentration giving greatest gene transfer (percentage of blue cells) [3]: 6 to 12 mM
- amiloride-sensitive Vt after hypotonic/EGTA treatment ([4]; 100 μM amiloride): there was no residual amiloride-sensitive Vt; also recorded: amiloride had no effect on Vt
- tracheal Vt ([4]; hypotonic solution with 10 mM EGTA then saline with 10 mM EGTA): caused a significant fall in Vt
- penetration of 100 nM fluorescent beads into epithelial layer (lung epithelial layer): beads were seen throughout the cell layer and close to the basement membrane
- effect of EGTA solution alone on cell proliferation (BrdU histochemistry) [5]: had no effect on cell proliferation

— US6855549B1, “Methods and compositions for increasing the infectivity of gene transfer vectors” (The University of Iowa Research Foundation, priority 1998, dated 2005)
